Results on six compounds are retold here after patent US20090036437A1, “PHARMACEUTICAL COMPOSITION COMPRISING PHENOXAZINIUM COMPOUND AS AN ACTIVE INGREDIENT” (priority 2005, published 2009).

Like-named read-outs stand apart in the source and are kept apart here.

In data set [1] the test system is Rat L6 cell (rat skeletal myoblast cell). Briefly: in vitro growth-inhibiting assay of rat L6 cells. In kind it is cell-based. The protocol:
Rat L6 cell (rat skeletal myoblast cell) was cultured in RPMI-1640 culture medium supplemented with 1% of L-glutamine (200 mM) and fetal calf serum (10%) under 5% CO2 concentration at 37° C. A test sample was prepared by dissolving the test compounds according to the present invention and a positive control drug in DMSO to a predetermined concentration. After pre-culture had been finished, the culture medium containing the cells in a logarithmic phase was placed into each well of a 96-well culture plate, and the test sample comprising the predetermined amount of the test compound, and DMSO without the test compound were added to the wells in duplicate.
(§1) After incubation of the culture plate for 72 hours in an incubator, a growth-inhibiting activity was assayed as follows. Alamar Blue aqueous solution (10 μL) was added to each well followed by a further two-hour culture. The culture plate was then attached to a fluorescence micro titer plate reader (Spectramax Gemeni XS; U.S. Molecular Device Co.), and the intensity of fluorescence at 588 nm was detected with an excitation wave length of 536 nm. A residual ratio of L6 cells was calculated with respect to a group treated with the test sample and a control group. A growth-inhibiting ratio for L6 cells was then calculated from the resulting residual ratio in accordance with the following equation to determine 50% growth-inhibiting concentration (EC50).
Growth-inhibiting ratio (%)=[1−(C−A)/(B−A)]×100 • A: Initial number of cells; • B: Number of the cells in the control after 3 days; and • C: Number of the cells treated with the test sample after 3 days Determination of Pharmaceutical effect for Chloroquine-Resistant Malaria

The test system of data set [2] is Trypanosoma brucei rhodensiense (STIB 900 strain). Briefly: in vitro growth-inhibiting screening assay, protozoa of African trypanosomiasis. The format is cell-based. To be noted: for EC50: 72 h, Alamar Blue, read-out: 50% growth-inhibiting concentration (nM) Trypanosoma brucei rhod. The protocol:
This test was done using a trypomastigote of the protozoa of Trypanosoma brucei rhodensiense (STIB 900 strain) ranging in blood stream. MEM medium sterilized by filtration was supplemented with 25 mM of N-2-hydroxyethylpiperazine-2-ethanesulfonic acid (HEPES), 1 g/L of glucose, 1% of MEM non-essential amino acids, 0.2 mM of 2-mercaptoethanol, 2 mM of sodium pyruvate, 1 mM of hypoxathine and 15% of heat-treated horse serum. The protozoa were cultured under CO2 concentration of 5%, at 37° C.
A test sample was prepared by dissolving the test compounds according to the present invention and a positive control drug (Melarsoprol) in DMSO to a predetermined concentration. Culture medium containing the protozoa of 8×10^3, and the test sample comprising the predetermined amount of the test compound, and DMSO without the test compound were added into each well of 96-well culture plate to a final volume of 100 μL in duplicate.
as §1, with “Co.),” for “Co.), and”, “with” for “with an”, “nm to calculate an infection” for “nm. A residual”, “the protozoa” for “L6 cells was calculated”, “ratio” for “ratio for L6 cells”, “infection” for “residual”
(§2) Growth-inhibiting ratio (%)=[1−(b−a)/(c−a)]×100 • a: Initial infection ratio; • b: Infection ratio of the test sample group; and • c: Infection ratio of the control group.
A selective toxicity coefficient, which is used as an index for the selective toxicity for the protozoa of African trypanosomiasis, was calculated by the following equation, and the pharmaceutical effect was determined.
Selective toxicity coefficient=(EC50 value of the test sample for rat L6 cell)/(EC50 value of the test sample for the protozoa of African typanosomiasis)

The test system of data set [3] is Leishmania donovani (MHOM/ET/67/L82 strain). Briefly: in vitro growth-inhibiting screening assay, protozoa of Leishmaniasis. The format is cell-based. The conditions noted are these: amastigotes; 72 h, Alamar Blue; read-out: growth-inhibiting concentration (nM) Leishmania donovani. The protocol:
This test was done using the protozoa of Leishmania donovani (MHOM/ET/67/L82 strain). The protozoa were subcultured using Syrian Golden hamster and an amastigote was obtained therefrom. The amastigotes were cultured in SM medium supplemented with 10% of heat-treated fetal calf serum (pH 5.4) under CO2 concentration of 5%, at 37° C.
A test sample was prepared by dissolving the test compounds according to the present invention and a positive control drug (Miltefosine) in DMSO to a predetermined concentration. Culture medium containing a predetermined number of the protozoa was added into each well of a 96-well culture plate, and the concentration of the amastigotes was measured by means of CASY cell analysis system (Dermany, Scharfe Co.). Test sample comprising the predetermined amount of the test compound, and DMSO without the test compound were added to the wells in duplicate.
After incubation of the culture plate for 72 hours in an incubator, a growth-inhibiting activity was assayed as follows. Alamar Blue aqueous solution (10 μL) was added to each well followed by a further two-hour culture. The culture plate was then attached to a fluorescence micro titer plate reader (Spectramax Gemeni XS; U.S. Molecular device Co.), the intensity of fluorescence at 588 nm was detected with excitation wave length of 536 nm to calculate an infection ratio of the protozoa with respect to a group trated with the test sample and a control group. A growth-inhibiting ratio was then calculated from the resulting infection ratio in accordance with the following equation to determine 50% growth-inhibiting concentration (EC50).
as §2
A selective toxicity coefficient, which is used as an index for the selective toxicity for the protozoa of Leishmaniasis, was calculated by the following equation, and the pharmaceutical effect was determined.
A selective toxicity coefficient=(EC50 value of the test sample for rat L6 cell)/(EC50 value of the test sample for the protozoa of Leishmaniasis).

The conditions of data set [4]: mouse, in vivo, po.
Where [5] appears, read: Table 3, 72 h, Alamar Blue, read-out: 50% growth-inhibiting concentration (nM) cytotoxicity L6.
Setting [6] is: Table 8, read-out: 50% growth-inhibiting concentration (nM) cytotoxicity L6.
Setting [7] is: Table 9, read-out: 50% growth-inhibiting concentration (nM) cytotoxicity L6.
[8] abbreviates: Table 10, read-out: growth-inhibiting concentration (nM) Cytotoxicity L6.

As to `CCN(CC)c1ccc2nc3ccc(=[N+](CC)CC)cc-3oc2c1.[Cl-]` [A-1 (60% purity)], the EC50 in data set [1] came out at 3950 nM; in data set [2] it was 181 nM; in data set [3], 2810 nM. For the same compound, the “reduction in weight or change of the conditions of mice attributed to side effects” value in data set [4] is “No reduction in weight or change of the conditions of mice”.

With `CCN(CC)c1ccc2nc3ccc(=[N+](CC)CC)cc-3oc2c1.[Cl-]` [A-1 (>95% purity)], the EC50 in data set [1] came to 20500 nM. Further, the “reduction in weight or change of the conditions of mice attributed to side effects” value in data set [4] is recorded as “No reduction in weight or change of the conditions of mice”.

Regarding `CN(C)c1ccc2nc3ccc(=[N+](C)C)cc-3oc2c1.CN(C)c1ccc2nc3ccc(=[N+](C)C)cc-3oc2c1.[Cl-].[Cl-].[Cl][Zn][Cl]` [Compound A-3], the EC50 in data set [1] (setting [5]) turned out to be 8870 nM; in data set [1] (setting [6]) it was 8870 nM; in data set [1] (setting [7]), 8870 nM; in data set [1] (setting [8]), 8870 nM; in data set [2], 565 nM; in data set [3], 887 nM.

In data set [2] (EC50 rat L6 cell / EC50 protozoa of African trypanosomiasis), `CC[N+](CC)=c1ccc2nc3ccc(N(C)C)cc3oc-2c1` [Compound A-4] came in with a Selective toxicity of 9.4. Moreover, the EC50 in data set [2] (Trypanosoma brucei, STIB900) came to 497 nM.

As for `CCCC[N+](CCCC)=c1ccc2nc3ccc(N(CC)CC)cc3oc-2c1.[Cl-]` [Compound A-6], the EC50 in data set [1] (setting [5]) came out at 839 nM; in data set [1] (setting [6]), 839 nM; in data set [1] (setting [7]), 839 nM; in data set [1] (setting [8]), 839 nM; in data set [2], 67.2 nM; in data set [3], 23 nM.

As to `CCCC[N+](CCCC)=c1ccc2nc3ccc(N(C)C)cc3oc-2c1.[O-][Cl+3]([O-])([O-])[O-]` [Compound A-7], the EC50 in data set [1] (setting [5]) turned out to be 409 nM; in data set [1] (setting [6]) it was 409 nM; in data set [1] (setting [7]), 409 nM; in data set [1] (setting [8]), 409 nM; in data set [2], 113 nM; in data set [3], 6 nM.
